Where two headings read alike, the source gives them in different places.
Experiments:
[1] = system: Pol II Ser2 phosphorylation and MCL1 levels; experiment: Washout expression assay (western blot); format: cell-based; details: Jurkat cells, 1 uM, 4 hours, 6 hours
Method: 4 hours after treatment, cells were either not treated or washed three times with RPMI media to remove all compound. Cells were replated and allowed to grow for 6 hours. Cells were harvested, washed 3 times with PBS and resuspended in RIPA buffer (25 mM Tris-HCl (pH 7.6), 150 mM NaCl, 1% NP-40, 1% sodium deoxycholate, 0.1% SDS). Equal amount of protein was loaded onto gel and blotted for Pol II Ser2 (Millipore 04-1571), total pol II (Santa Cruz 17798), Tubulin (Cell Signaling 11H10) or MCL1 (Cell Signaling 4572S)

[2] = system: HAP1 cells; experiment: HAP1 cell proliferation assay, wild type vs CDK12 C1039S/CDK13 C1017S; format: cell-based; details: 72 hrs proliferation
Method: Double mutant cells are 4-fold less sensitive to E17 compared to wild type cells indicating rescue of CDK12/13 inhibition-induced proliferation defects. HAP1 cells were seeded at a density of 12,000 cells/well in 96-well plates. Twenty-four hours later, cells were treated with the indicated compounds in a 10-pt dose escalation format from 1 nM to 10 μM or DMSO control for 72 hours. After 72 hours, the cells were assayed using CellTiter-Glo Luminescent Cell Viability Assay (Promega) to determine cell viability by measuring the amount of ATP present in each sample cell population, which is an indicator of cell metabolic activity. Results were graphed as fraction of the DMSO control at 72 hours. All data points were performed in biological triplicate. Error bars are +/−SD.
Genome Editing: The CRISPR/Cas9 system was used to mutate the endogenous CDK12 and CDK13 loci to encode for CDK12 C1039S and CDK13 C1017S, both of which are putative CDK12/13 inhibitor-refractory mutants. Target-specific oligonucleotides were cloned into pX330, which carries a codon-optimized version of Cas9 and was further modified to express GFP for identifying transfectants. […]

[3] = biological target: CDK2/CycA (Homo sapiens, UniProt P24941); experiment: CDK2/CycA inhibition (Tables A1, A2); format: biochemical
[4] = biological target: CDK9/CycT (Homo sapiens, UniProt P50750); experiment: CDK9/CycT inhibition (Tables A1, A2); format: biochemical
Chain of CDK9/CycT (P50750 whole entry): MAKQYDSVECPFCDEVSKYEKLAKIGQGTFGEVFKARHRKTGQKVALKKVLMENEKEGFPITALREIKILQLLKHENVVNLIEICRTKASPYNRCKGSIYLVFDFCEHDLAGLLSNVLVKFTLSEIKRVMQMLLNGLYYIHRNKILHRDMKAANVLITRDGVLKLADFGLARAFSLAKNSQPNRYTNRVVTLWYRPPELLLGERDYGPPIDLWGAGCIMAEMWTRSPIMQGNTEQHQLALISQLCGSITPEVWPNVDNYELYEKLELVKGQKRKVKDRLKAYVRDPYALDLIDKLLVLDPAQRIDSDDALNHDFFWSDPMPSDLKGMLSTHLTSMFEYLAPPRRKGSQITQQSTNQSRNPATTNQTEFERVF
Chain of CDK9/CycT (O60563 whole entry partner): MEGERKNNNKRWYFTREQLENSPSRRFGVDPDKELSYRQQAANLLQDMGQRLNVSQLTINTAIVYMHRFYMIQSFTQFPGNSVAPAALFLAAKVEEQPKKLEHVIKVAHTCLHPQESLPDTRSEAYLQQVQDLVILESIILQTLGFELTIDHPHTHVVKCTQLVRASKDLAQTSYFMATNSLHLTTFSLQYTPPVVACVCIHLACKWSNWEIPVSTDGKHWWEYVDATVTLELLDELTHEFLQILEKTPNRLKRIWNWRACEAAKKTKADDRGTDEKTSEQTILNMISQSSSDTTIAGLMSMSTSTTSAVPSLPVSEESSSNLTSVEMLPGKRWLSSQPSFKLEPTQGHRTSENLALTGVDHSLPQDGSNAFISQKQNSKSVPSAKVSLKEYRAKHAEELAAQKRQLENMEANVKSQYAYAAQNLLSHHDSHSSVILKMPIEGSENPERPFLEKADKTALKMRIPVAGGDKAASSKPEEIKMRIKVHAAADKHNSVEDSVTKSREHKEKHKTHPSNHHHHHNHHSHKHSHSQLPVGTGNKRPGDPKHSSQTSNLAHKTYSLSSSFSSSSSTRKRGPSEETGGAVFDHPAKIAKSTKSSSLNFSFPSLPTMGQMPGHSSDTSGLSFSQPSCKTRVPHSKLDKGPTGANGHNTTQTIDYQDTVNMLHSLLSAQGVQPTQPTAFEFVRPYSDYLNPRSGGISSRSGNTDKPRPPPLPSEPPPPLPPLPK

[5] = biological target: CDK7/CycH (Homo sapiens, UniProt P50613); experiment: CDK7/CycH inhibition (Tables A1, A2); format: biochemical
Chain of CDK7/CycH (P50613 whole entry): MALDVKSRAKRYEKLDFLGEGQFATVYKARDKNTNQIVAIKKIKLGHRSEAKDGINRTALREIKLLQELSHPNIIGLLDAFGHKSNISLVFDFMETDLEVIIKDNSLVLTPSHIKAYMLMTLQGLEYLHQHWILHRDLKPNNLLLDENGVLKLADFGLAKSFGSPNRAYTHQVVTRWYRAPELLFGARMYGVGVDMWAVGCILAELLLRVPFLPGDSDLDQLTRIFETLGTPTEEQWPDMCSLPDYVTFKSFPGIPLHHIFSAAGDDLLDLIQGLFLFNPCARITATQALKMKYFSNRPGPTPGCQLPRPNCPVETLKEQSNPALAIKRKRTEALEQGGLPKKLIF
Chain of CDK7/CycH (P51946 whole entry partner): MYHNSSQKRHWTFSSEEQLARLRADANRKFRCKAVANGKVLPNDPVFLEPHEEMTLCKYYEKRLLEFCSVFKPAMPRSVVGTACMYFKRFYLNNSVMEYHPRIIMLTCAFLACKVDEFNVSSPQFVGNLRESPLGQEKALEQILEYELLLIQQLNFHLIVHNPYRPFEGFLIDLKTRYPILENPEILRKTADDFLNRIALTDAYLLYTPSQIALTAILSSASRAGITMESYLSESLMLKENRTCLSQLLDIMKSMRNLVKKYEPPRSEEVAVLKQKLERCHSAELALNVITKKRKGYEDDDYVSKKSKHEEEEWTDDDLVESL

[6] = biological target: T1, CDK7 (Homo sapiens, UniProt P50613); experiment: Pulldown assay with biotin-THZ1, blot for Cyclin H; format: cell-based; details: Jurkat cells treated with 1 uM or 200 nM
T1 construct: endogenous in cells; host or cells: Jurkat
T1 sequence (P50613 2-346 limits assumed): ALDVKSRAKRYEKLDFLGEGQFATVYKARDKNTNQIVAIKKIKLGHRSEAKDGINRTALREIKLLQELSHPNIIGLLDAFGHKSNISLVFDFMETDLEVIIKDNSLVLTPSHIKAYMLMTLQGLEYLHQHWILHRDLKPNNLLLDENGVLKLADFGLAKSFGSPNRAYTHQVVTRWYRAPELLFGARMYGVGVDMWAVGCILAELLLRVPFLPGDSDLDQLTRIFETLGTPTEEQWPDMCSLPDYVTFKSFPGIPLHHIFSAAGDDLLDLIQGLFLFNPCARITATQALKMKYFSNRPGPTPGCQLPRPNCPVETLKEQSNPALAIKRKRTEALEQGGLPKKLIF
T1 sequence (P51946 whole entry partner): as the sequence (P51946 whole entry partner) above
T1 sequence (P51948 whole entry partner): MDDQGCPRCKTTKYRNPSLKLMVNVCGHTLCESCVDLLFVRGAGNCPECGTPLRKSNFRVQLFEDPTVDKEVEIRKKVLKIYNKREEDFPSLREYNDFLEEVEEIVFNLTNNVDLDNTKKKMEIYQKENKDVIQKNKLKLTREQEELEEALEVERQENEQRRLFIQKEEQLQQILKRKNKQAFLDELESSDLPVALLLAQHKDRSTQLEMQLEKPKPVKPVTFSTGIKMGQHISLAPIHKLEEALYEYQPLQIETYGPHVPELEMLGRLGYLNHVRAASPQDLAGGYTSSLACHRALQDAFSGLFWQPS
Method: Compounds E9 and E17 were able to block pulldown of cyclin K at 1 μM and 200 nM. Specifically. […] Decreased pulldown of cyclin K with biotin-THZ1 indicated a loss of CDK12 binding.
(§1) 6 hours after treatment, cells were washed and harvested by resuspending in lysis buffer (50 mM Hepes pH 7.4, 150 mM NaCl, 1% NP-40, 5 mM EDTA, protease and phosphatase inhibitors) and lysing on ice 30 minutes. Lysates were cleared by centrifugation at 15,000 rpm 30 minutes. Biotin-labeled THZ1 was added to 1 uM to lysates and rotated at 4° C. overnight. Streptavidin-agarose beads were washed and 30 uL slurry was added to each lysate and rotated for 1 hour at 4° C. Beads were washed 5 times with lysis buffer and 50 uL 2×LDS buffer was added to each sample. Samples were boiled and equal volume of protein was loaded onto gel. Gel was transferred to nitrocellulose and blotted for Cyclin K and Cyclin H.

[7] = system: Jurkat cells; experiment: Jurkat proliferation assay (CellTiter-Glo); format: cell-based; details: for IC50: Homo sapiens, Jurkat
Method: (§2) Jurkat cells were seeded at a density of 25,000 cells/well in 96-well plates. Cells were then treated with the indicated compounds in a 10-pt dose escalation format from 1 nM to 10 μM or DMSO control for 72 hours. After 72 hours, the cells were assayed using CellTiter-Glo Luminescent Cell Viability Assay (Promega) to determine cell viability by measuring the amount of ATP present in each sample cell population, which is an indicator of cell metabolic activity. […] All data points were performed in biological triplicate. Error bars are +/−SD.
as §2, with “hrs.” for “hours.”, “hrs,” for “hours, the”

[8] = biological target: T2, CDK12 (Homo sapiens, UniProt Q9NYV4); experiment: Pulldown assay with biotin-THZ1, blot for Cyclin K; format: cell-based; details: Jurkat cells treated with 1 uM or 200 nM
T2 construct: endogenous in cells; host or cells: Jurkat
T2 sequence (Q9NYV4 whole entry): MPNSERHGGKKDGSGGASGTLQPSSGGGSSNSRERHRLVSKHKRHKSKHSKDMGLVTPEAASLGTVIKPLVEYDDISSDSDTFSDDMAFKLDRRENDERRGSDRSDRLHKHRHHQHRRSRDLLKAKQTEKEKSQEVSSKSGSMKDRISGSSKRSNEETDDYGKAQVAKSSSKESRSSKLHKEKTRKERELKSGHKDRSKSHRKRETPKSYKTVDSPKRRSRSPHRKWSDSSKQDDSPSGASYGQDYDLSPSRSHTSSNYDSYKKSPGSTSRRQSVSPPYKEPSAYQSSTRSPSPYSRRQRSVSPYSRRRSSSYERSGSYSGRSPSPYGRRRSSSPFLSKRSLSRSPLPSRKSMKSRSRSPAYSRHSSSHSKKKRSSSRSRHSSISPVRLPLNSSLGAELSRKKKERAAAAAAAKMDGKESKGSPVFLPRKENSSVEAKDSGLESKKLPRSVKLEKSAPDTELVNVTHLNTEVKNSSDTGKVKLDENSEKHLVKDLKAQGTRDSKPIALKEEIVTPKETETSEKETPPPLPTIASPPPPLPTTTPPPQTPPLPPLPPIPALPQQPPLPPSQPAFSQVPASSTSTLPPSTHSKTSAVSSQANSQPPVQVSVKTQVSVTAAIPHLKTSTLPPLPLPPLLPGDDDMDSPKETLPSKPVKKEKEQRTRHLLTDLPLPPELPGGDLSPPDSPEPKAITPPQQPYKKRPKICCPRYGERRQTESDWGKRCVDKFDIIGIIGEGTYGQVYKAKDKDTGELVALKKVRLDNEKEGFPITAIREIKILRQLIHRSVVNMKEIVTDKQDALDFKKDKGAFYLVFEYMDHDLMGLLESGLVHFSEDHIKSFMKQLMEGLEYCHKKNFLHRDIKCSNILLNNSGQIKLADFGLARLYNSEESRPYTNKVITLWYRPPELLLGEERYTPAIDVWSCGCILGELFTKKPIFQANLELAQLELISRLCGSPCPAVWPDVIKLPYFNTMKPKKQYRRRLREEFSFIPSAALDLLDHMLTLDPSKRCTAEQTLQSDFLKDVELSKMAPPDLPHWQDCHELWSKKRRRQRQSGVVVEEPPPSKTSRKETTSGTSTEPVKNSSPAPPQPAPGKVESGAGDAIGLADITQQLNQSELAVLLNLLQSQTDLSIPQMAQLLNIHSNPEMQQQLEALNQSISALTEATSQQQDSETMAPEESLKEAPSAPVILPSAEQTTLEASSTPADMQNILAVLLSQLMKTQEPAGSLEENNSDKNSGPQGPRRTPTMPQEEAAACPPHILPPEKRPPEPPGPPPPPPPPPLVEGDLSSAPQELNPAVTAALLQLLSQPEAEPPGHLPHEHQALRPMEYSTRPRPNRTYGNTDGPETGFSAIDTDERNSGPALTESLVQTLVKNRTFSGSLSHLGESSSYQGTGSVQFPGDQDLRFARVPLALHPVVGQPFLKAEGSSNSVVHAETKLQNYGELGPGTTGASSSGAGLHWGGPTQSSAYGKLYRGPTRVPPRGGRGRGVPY
T2 sequence (O75909 whole entry partner): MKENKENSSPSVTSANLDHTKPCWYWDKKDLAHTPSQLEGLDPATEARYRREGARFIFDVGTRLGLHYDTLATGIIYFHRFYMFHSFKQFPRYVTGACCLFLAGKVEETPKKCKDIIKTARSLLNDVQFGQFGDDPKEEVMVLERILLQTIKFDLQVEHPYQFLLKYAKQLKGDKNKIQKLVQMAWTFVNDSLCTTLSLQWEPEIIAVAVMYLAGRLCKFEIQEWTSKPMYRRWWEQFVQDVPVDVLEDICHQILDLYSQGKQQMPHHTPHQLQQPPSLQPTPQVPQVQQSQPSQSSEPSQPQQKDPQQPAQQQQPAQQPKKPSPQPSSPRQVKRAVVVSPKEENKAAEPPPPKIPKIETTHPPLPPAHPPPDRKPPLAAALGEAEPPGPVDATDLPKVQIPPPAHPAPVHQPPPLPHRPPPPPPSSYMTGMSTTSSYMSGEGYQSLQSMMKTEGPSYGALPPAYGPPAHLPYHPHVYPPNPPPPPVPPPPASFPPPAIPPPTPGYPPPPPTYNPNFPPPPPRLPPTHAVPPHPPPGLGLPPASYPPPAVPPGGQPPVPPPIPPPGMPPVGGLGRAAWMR
Method: Specifically. […] Decreased pulldown of cyclin K with biotin-THZ1 indicated a loss of CDK12 binding.
as §1

[9] = system: Jurkat cells; experiment: Growth assay with and without washout; format: cell-based; details: 1 uM, 4 hours treatment, assayed 68 hours after washout
Method: Cells were treated with each compound for 4 hours and either no washout (no washout) or had compound removed by washing cells with media (washout). Sixty-eight (68) hours after washout, the cells were assayed for antiproliferative effects. Error bars indicate +/−SD.
4 hours after treatment, cells were either not treated or washed three times with RPMI media to remove all compound. Cells were replated and allowed to grow for 68 hours. Cells were assayed using celltiter glo (Promega) to determine cell viability by measuring the amount of ATP present, which is an indicator of cell metabolic activity. Results are graphed as luminescent values (FIG. 1).

C=CC(=O)Nc1cccc(Nc2nc(N[C@H]3CC[C@H](N(C)C)CC3)nc3c(CC)cnn23)c1 [SB1-E-17, N-(3-(2-((1r,4r)-4-(Dimethylamino)cyclohexylamino)-8-ethylpyrazolo[1,5-a][1,3,5]triazin-4-ylamino)phenyl)acrylamide]
Effect on Polymerase II Serine 2 phosphorylation and MCL1 levels with and without washout [1]: irreversible effect
Loss of sensitivity of CDK12 C1039S/CDK13 C1017S HAP1 cells compared to wild type HAP1 cells [2]: 4 fold
IC50 [3]: 247 nM
IC50 [4]: 171 nM
IC50 [5]: 1020 nM
Pulldown of Cyclin H by biotin-THZ1 (CDK7 binding) [6]: not able to bind to CDK7
Mode of inhibition of Jurkat T-ALL cell proliferation [7]: irreversiably inhibit
IC50 ([7]; 72 h, CellTiter-Glo, read-out: IC50 on Jurkat T-ALL cell proliferation): < 100 nM
IC50 ([7]; read-out: Jurkat IC50): 60.6 nM
Pulldown of Cyclin K by biotin-THZ1 (CDK12 binding) [8]: blocks the pulldown of Cyclin K
Inhibition of Jurkat cell viability with and without washout [9]: irreversibly inhibit Jurkat cell viability

— patent US12098154B2, “Inhibitors of cyclin-dependent kinases” (Dana-Farber Cancer Institute, Inc., priority 2015, dated 2024)
